Experimental data taken from patent publication US9237744B2, “Preservative solution for cells, tissues and organs containing rare sugar and preservative method thereof” (NATIONAL UNIVERSITY CORPORATION KAGAWA UNIVERSITY, priority 2004, dated 2016).

Tested on: human sperms
Test: Survival rate of frozen and thawed sperms, 0.5% Eosin Y dying
Type: cell-based
Conditions: freeze-preservative solution using D-allose, liquid nitrogen 1 month (FIG. 17)
Protocol: Semens of ten healthy men who were 24 to 44 years old (mean: 29.9) with normal semens were used.
The semen was manually collected after abstinence for 3 to 5 days, liquefied at room temperature, and then washed and concentrated by a 80% Percoll liquid agitation density gradient method. The resulting sperm turbid solution (0.2 ml) and the freeze-preservative solution were mixed in equal amounts, and the mixture was charged into a freezing tube (serum tube, Sumitomo Bakelite), frozen by a liquid nitrogen vapor freezing method, and then preserved in a liquid nitrogen tank. The freeze-preservative solution (refer to FIG. 14) was used such that the mixing amounts of D-allose and D-glucose were changed (A group=1:0, B group=3:1, C group=1:1, D group=1:3, E group=0:1) without changing the number of moles of the sugar in a KS-II sperm preservative solution. One month later, the frozen sperms were thawed in warm water (30° C.) with shaking. Further, for removal of the freeze-preservative solution and reconcentration, the density gradient centrifugation method was conducted, and the resulting sperm floating solution was examined.
As the examination method, the sperm movement rate was measured by a visual observation method with Makler Counting Chamber and C-IMAGING SYSTEMS, and the survival rate was measured by 0.5% Eosin Y dying. […]

O=C[C@H](O)[C@H](O)[C@H](O)[C@H](O)CO [D-allose]
survival rate of thawed sperms: did not show a clear effect
